Test results from the NIST ThermoML archive (doi:10.1016/j.jct.2011.10.023).

Details: Liquid, Vibrating tube method

CCCO [propan-1-ol]
mass density [kg/m3]
Details | 278.15 K | 288.15 K | 298.15 K | 308.15 K | 318.15 K | 328.15 K | 338.15 K | 348.15 K | 358.15 K
100 kPa | 815.7 | 807.8 | 799.8 | 791.6 | 783.4 | 775 | 766.3 | 757.2 | 747.7
1000 kPa | 816.4 | 808.5 | 800.5 | 792.4 | 784.2 | 775.9 | 767.2 | 758.3 | 748.8
5000 kPa | 819.4 | 811.6 | 803.8 | 795.8 | 787.9 | 779.7 | 771.3 | 762.6 | 753.5
10000 kPa | 822.8 | 815.3 | 807.6 | 800.1 | 792.2 | 784.2 | 776.1 | 767.7 | 758.8
15000 kPa | 826.2 | 818.9 | 811.4 | 803.8 | 796.3 | 788.5 | 780.6 | 772.5 | 764
20000 kPa | 829.4 | 822.3 | 814.9 | 807.5 | 800.2 | 792.6 | 784.9 | 777 | 768.7
25000 kPa | 832.6 | 825.5 | 818.3 | 811.1 | 803.9 | 796.5 | 789 | 781.3 | 773.3
30000 kPa | 835.7 | 828.7 | 821.6 | 814.5 | 807.5 | 800.2 | 792.9 | 785.4 | 777.5
35000 kPa | 838.6 | 831.8 | 824.8 | 817.8 | 810.9 | 803.8 | 796.6 | 789.3 | 781.6
40000 kPa | 841.5 | 834.7 | 827.9 | 821 | 814.2 | 807.2 | 800.2 | 793 | 785.5
45000 kPa | 844.3 | 837.6 | 830.9 | 824.1 | 817.5 | 810.6 | 803.7 | 796.6 | 789.3
50000 kPa | 847.1 | 840.4 | 833.8 | 827.1 | 820.5 | 813.8 | 807 | 800.1 | 792.9
55000 kPa | 849.7 | 843.1 | 836.6 | 830 | 823.6 | 816.9 | 810.3 | 803.5 | 796.4
60000 kPa | 852.1 | 845.6 | 839.2 | 832.7 | 825.8 | 819.8 | 813.4 | 806.5 | 799.6
